Like-named read-outs stand apart in the source and are kept apart here.
Tests used:
[1] = system: P. falciparum (NF54 or 3D7 strain); assay: Assay for P. falciparum proliferation in infected human blood cells (SYBR Green); type: cell-based, Plasmodium falciparum; conditions: Plasmodium falciparum, Erythrocyte
Procedure, shortened: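 NF54 or 3D7 parasites in O+ human erythrocytes at 2.5% hematocrit and 0.3% parasitemia final, exposed to compounds 72 h at 37 °C under 93% N2/4% CO2/3% O2.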

[2] = system: P. yoelii Sporozoite; assay: P. yoelii sporozoite invasion assay in HepG2-A16-CD81EGFP liver cells (immunofluorescence quantification of EEFs); type: cell-based; conditions: Plasmodium yoelii
From the text: Compounds of the invention can be assayed to measure their capacity to inhibit proliferation of parasites in liver cells. The proliferation is quantified by determine the number of infected cells by immunofluorescence.
Due to the difficulty of successfully infecting immortalized human liver cell lines with the human malaria sporozoites (liver-stage parasite), rodent malaria sporozoites from Plasmodium yoelii (17XNL) and P. berghei (ANKA) are the preferred surrogate. Sporozoites are obtained from Anopheles stephensi mosquitoes supplied by the New York University Insectary, which ships the malaria-infected mosquitoes 10-13 days following the ingestion of an infective blood meal.
A transgenic HepG2 cell line expressing the tetraspanin CD81 receptor (HepG2-A16-CD81^EGFP) is used to increase the infectivity rate of rodent-malaria sporozoites into human cells. HepG2-A16-CD81^EGFP cells are stably transformed to express a GFP-CD81 fusion protein. A continuous in vitro culture of this line was maintained at 37° C. in 4% CO2 in complete media (CM) which contains: DMEM (Invitrogen, Carlsbad, USA) supplemented with 10% FCS, 0.29 mg/ml glutamine, 100 units penicillin and 100 μg/ml streptomycin (SigmaAldrich, USA).
P. yoelii Sporozoite Invasion Assay
These plates are incubated at 37° C. with 4% CO2 overnight. Two hours prior to infection, 50 nl of compound dissolved in DMSO (0.1% final DMSO concentration per well) were transferred with a PinTool (GNF Systems) into the assay plates (10 μM final concentration). A 1:3 serial dilution of atovaquone (10 μM at the highest final concentration) and wells treated only with DMSO were used as positive and negative controls, respectively.
Freshly dissected salivary glands from infected mosquitoes were homogenized in a glass tissue grinder, filtered twice through Nylon cell strainers (40 μm pore size, BD Falcon) and counted using a hemocytometer. The assay plate with HepG2-A16-CD81^EGFP cells and compound were then infected with 8×10^3 sporozoites per well and the plates are subjected to a centrifugal force of 650×g to pellet the sporozoites onto the liver cell monolayer. The assay plate is incubated at 37° C. for 2 hours to permit sporozoite invasion, then the media is aspirated from the media plate, and replaced with 50 μl CM (containing a 5× concentration of penicillin/streptomycin; 500 units penicillin and 0.5 mg streptomycin per ml) per well. 50 nl of compound is re-introduced by PinTool and the assay plate incubated for 48 hours at 37° C. before quantification of infected cells by immunofluorescence.
Atovaquone and uninfected wells were used as controls on each plate. Two replicate plates are tested for each assay.
Stained EEFs were then quantified using the Opera Confocal High Content Screening System (PerkinElmer, Waltham, USA). Images were collected using a 20× objective lens (20×/0.45 NA, LWD Plan Fluor, Olympus) at a binning of 2, using a 365 nm Xeon arc lamp illumination to detect the Hoechst-labeled nuclei and 635 nm laser line to excite DyLight649-labeled parasites. The image resolution yielded was approximately 0.66 μm/pixel (˜0.43 μm 2/pixel). All images were analyzed using a custom Acapella™ (PerkinElmer) script parametrized for this assay. In brief, images from fields inside the well were first discarded as out-of focus when the intensity in the nuclear channel was too low. Then, HepG2-A16-CD81^EGFP cells were counted by detecting the nuclei labeled with Hoechst using the nuclei detection libraries available with Acapella™. Parasites were later segmented using the αPyHSP70 immuno-labeling signal, using a custom script library. Once the objects were segmented from the picture, morphological-based (e.g. size, roundness, etc) and intensity-based features were measured for each object detected in the image (i.e. nuclei and parasites). Infection ratio was set as the ratio between parasite number and number of nuclei counted in images considered as “in-focus”.

[3] = 72 h, NF54 or 3D7 infected human erythrocytes, 72 hours, read-out: EC50 (nM), inhibitory efficacy in delaying P. falciparum proliferation in infected human blood cells
[4] = infected human red blood cells, read-out: EC50, P. falciparum Proliferation Assay
[5] = HepG2-A16-CD81EGFP cells, 48 hours, read-out: EC50 (nM), inhibitory efficacy in delaying the proliferation of P. yoelii sporozoite in infected liver cells
[6] = 72 h, read-out: EC50 (nM), inhibitory efficacy in delaying P. falciparum proliferation in infected human blood cells
[7] = read-out: EC50, P. yoelii Sporozoite Invasion Assay

Compound | EC50 [1, 3] | EC50 [2, 5] | also measured
CN(C(=O)c1cn2c(-c3ccc(C(N)=O)cc3)cnc2cn1)c1ccc(Cl)cc1 [Compound 486, 3-(4-carbamoylphenyl)-N-(4-chlorophenyl)-N-methylimidazo[1,2-a]pyrazine-6-carboxamide] | 42 nM | 120 nM | EC50 [1, 4]: < 50 nM
CN(C(=O)c1cn2c(-c3ccc(C(N)=O)cc3)cnc2cn1)c1ccc(F)cc1 [Compound 11, 3-(4-carbamoylphenyl)-N-(4-fluorophenyl)-N-methylimidazo[1,2-a]pyrazine-6-carboxamide] | 74 nM | 56 nM | 
COC(=O)Nc1ccc(-c2cnc3cnc(C(=O)N(C)c4ccc(C#N)cc4)cn23)cc1 [Compound 482, methyl N-(4-{6-[(4-cyanophenyl)(methyl)carbamoyl]imidazo[1,2-a]pyrazin-3-yl}phenyl)carbamate] | 37 nM | 64 nM | 
CNC(=O)c1ccc(-c2cnc3cnc(C(=O)N(C)c4ccc(C#N)cc4)cn23)cc1 [Compound 38, N-(4-cyanophenyl)-N-methyl-3-[4-(methylcarbamoyl)phenyl]imidazo[1,2-a]pyrazine-6-carboxamide] | 131 nM | 290 nM | 
CN(C(=O)c1cn2c(-c3ccc4c(cnn4C)c3)cnc2cn1)c1ccc(C#N)cc1 [Compound 487, N-(4-cyanophenyl)-N-methyl-3-(1-methyl-1H-indazol-5-yl)imidazo[1,2-a]pyrazine-6-carboxamide] | 96 nM | 2940 nM | 
CNC(=O)c1ccc(-c2cnc3cnc(C(=O)N(C)c4ccc(Cl)cc4)cn23)cc1 [Compound 228, N-(4-chlorophenyl)-N-methyl-3-[4-(methylcarbamoyl)phenyl]imidazo[1,2-a]pyrazine-6-carboxamide] |  |  | EC50 [1, 6]: 58 nM; EC50 ([2]; 48 h, read-out: EC50 (nM), inhibitory efficacy in delaying the proliferation of P. yoelii sporozoite in infected liver cells): 32 nM; EC50 [2, 7]: < 50 nM
CC(=O)Nc1ccc(-c2cnc3cnc(C(=O)N(C)c4ccc(C#N)cc4)cn23)cn1 [Compound 236, N-(4-cyanophenyl)-3-(6-acetamidopyridin-3-yl)-N-methylimidazo[1,2-a]pyrazine-6-carboxamide] | 127 nM | 189 nM | 
CN(C(=O)c1cn2c(-c3ccc(C(F)(F)F)cc3)cnc2cn1)c1ccc(C#N)cc1 [Compound 76, N-(4-cyanophenyl)-N-methyl-3-[4-(trifluoromethyl)phenyl]imidazo[1,2-a]pyrazine-6-carboxamide] |  | 263 nM | EC50 [1, 6]: 35 nM
CN(Cc1cn2c(-c3ccc(C(N)=O)cc3)cnc2cn1)c1ccc(C#N)cc1 [Compound 223, 4-(6-{[(4-cyanophenyl)(methyl)amino]methyl}imidazo[1,2-a]pyrazin-3-yl)benzamide] | 25 nM | 11 nM | EC50 [2, 7]: < 50 nM
CN(Cc1cn2c(-c3ccc(C(N)=O)cc3)cnc2cn1)c1ccc(F)cc1 [Compound 222, 4-(6-{[(4-fluorophenyl)(methyl)amino]methyl}imidazo[1,2-a]pyrazin-3-yl)benzamide] | 30 nM | 7 nM | EC50 [1, 4]: < 50 nM; EC50 [2, 7]: < 50 nM
CN(Cc1cn2c(-c3ccc(C(N)=O)cc3)cnc2cn1)c1ccc(Cl)cc1 [Compound 477, 4-(6-{[(4-chlorophenyl)(methyl)amino]methyl}imidazo[1,2-a]pyrazin-3-yl)benzamide] | 9 nM | 11 nM | EC50 [1, 4]: < 50 nM; EC50 [2, 7]: < 50 nM
CN(Cc1cn2c(-c3ccc(C(F)(F)F)cc3)cnc2cn1)c1ccc(C#N)cc1 [Compound 213, 4-[methyl({3-[4-(trifluoromethyl)phenyl]imidazo[1,2-a]pyrazin-6-yl}methyl)amino]benzonitrile] | 41 nM | 14 nM | EC50 [2, 7]: < 50 nM
CN(Cc1cn2c(-c3ccc(-n4cccn4)cc3)cnc2cn1)c1ccc(Cl)cc1 [Compound 9, N-((3-(4-(1H-pyrazol-1-yl)phenyl)imidazo[1,2-a]pyrazin-6-yl)methyl)-4-chloro-N-methylaniline] | 218 nM |  | 
CN(C(=O)c1cn2c(-c3ccc(C(F)(F)F)cc3)cnc2cn1)c1ccc(-c2nnn(C)n2)cc1 [Compound 68, N-methyl-N-[4-(2-methyl-2H-1,2,3,4-tetrazol-5-yl)phenyl]-3-[4-(trifluoromethyl)phenyl]imidazo[1,2-a]pyrazine-6-carboxamide] | > 10000 nM |  | 
CN(C(=O)c1cn2c(-c3ccc(Oc4ccccc4)cc3)cnc2cn1)c1ccc(C#N)cc1 [Compound 177, N-(4-cyanophenyl)-N-methyl-3-(4-phenoxyphenyl)imidazo[1,2-a]pyrazine-6-carboxamide] | 6750 nM |  | 
Cc1ccc(N(C)C(=O)c2cn3c(-c4ccc(C(F)(F)F)cc4)cnc3cn2)nc1 [Compound 491, N-methyl-N-(5-methylpyridin-2-yl)-3-[4-(trifluoromethyl)phenyl]imidazo[1,2-a]pyrazine-6-carboxamide] | 199 nM | 1110 nM | 
CN(C(=O)c1cn2c(-c3ccc(C(F)(F)F)cc3)cnc2cn1)c1ccc(Cl)cc1 [Compound 217, N-(4-chlorophenyl)-N-methyl-3-[4-(trifluoromethyl)phenyl]imidazo[1,2-a]pyrazine-6-carboxamide] | 36 nM |  | 
CN(C(=O)c1cn2c(-c3ccc(C(F)(F)F)cc3)cnc2cn1)c1ccc(-n2ccc(C(F)(F)F)n2)cc1 [Compound 206, -methyl-N-{4-[3-(trifluoromethyl)-1H-pyrazol-1-yl]phenyl}-3-[4-(trifluoromethyl)phenyl]imidazo[1,2-a]pyrazine-6-carboxamide] | > 9760 nM |  | 
CN(C(=O)c1cn2c(-c3ccc(-c4ccn[nH]4)cc3)cnc2cn1)c1ccc(C#N)cn1 [Compound 182, N-(5-cyanopyridin-2-yl)-N-methyl-3-[4-(1H-pyrazol-5-yl)phenyl]imidazo[1,2-a]pyrazine-6-carboxamide] | 2260 nM |  | 
CN(C(=O)N1CCC(C)(C)CC1)c1cn2c(-c3ccc(C(F)(F)F)cc3)cnc2cn1 [Compound 294, N,4,4-trimethyl-N-{3-[4-(trifluoromethyl)phenyl]imidazo[1,2-a]pyrazin-6-yl}piperidine-1-carboxamide] | 2120 nM |  | 
CN(C(=O)c1cn2c(-c3ccc4nonc4c3)cnc2cn1)c1ccc(C#N)cc1 [Compound 202, 3-(2,1,3-benzoxadiazol-5-yl)-N-(4-cyanophenyl)-N-methylimidazo[1,2-a]pyrazine-6-carboxamide] | > 10000 nM |  | 
